Laboratory results from article PMC8178976, “A biocompatible stapling reaction for in situ generation of constrained peptides” (Chemical Science, 2020).
Like-named read-outs stand apart in the source and are kept apart here. Where a SMILES comes first, the peptide text is derived from it. [ ]: non-standard residue; d: D form. Dab = NCC[C@H](N)C(=O)O

Experiments:
[1] = molecular target: Zika virus NS2B-NS3 protease (ZiPro) (Zika virus, UniProt A0A024B7W1); experiment: Zika virus NS2B-NS3 protease (ZiPro) inhibition assay; assay type: biochemical; conditions: for IC50: purified compounds, dose-response curve assuming Hill slope of 1, 3-parameter fit
Experimental: Expression and purification of Zika virus protease NS2B-NS3 (ZiPro)
The unlinked Zika virus protease NS2B-NS3 construct referred to as bZiPro was obtained from Addgene (plasmid #86846) and expressed and purified exactly as described previously.1 Preparation of samples for ZiPro assay
Linear peptide samples 1a – 10a were prepared by adding 2 µl of 1a – 10a (10 mM in water) to 198 µl of buffer (10 mM Tris pH 7.5, 1 mM TCEP). The presence of TCEP is important to reduce cyclic disulfides. Stapled peptides 1b – 10b were prepared in situ by adding 2.5 µl of DCP (10 mM in DMSO) and 2 µl of 1a – 10a (10 mM in water) to 195.5 µl of buffer (10 mM Tris pH 7.5, 1 mM TCEP). Samples were incubated overnight, and the presence of stapled peptides 1b – 10b was confirmed by LC-MS (method B).
ZiP ro inhibition assay (Table 2)
The assay was conducted in 96-well plates (black U-bottom, Greiner Bio-One) in a total volume of 100 µl using 10 mM Tris pH 8.5, 1 mM CHAPS, 20% glycerol . All measurements were performed in triplicate. Purified peptides 1a – 10a and crude mixtures containing peptides 1b – 10b (prepared as described above) were incubated with ZiPro (0.3 nM) at final concentrations of 1 and 10 µM. The enzymatic reaction was initiated by addition of the substrate Bz-Nle-Ly s-Lys-Arg-A MC (Biosynt a n) at a final concentration of 5 µM.
Fluorescence was monitored by a fluorophotometer (Spectramax M2e plate reader, Molecular Devices) for 5 min at 460 nm using 360 nm excitation. Initial velocities were derived from the linear range, and 100% enzyme activity was defined as the initial velocity of blank wells containing no peptide. Percent inhibition was calculated as a fraction of 100% enzyme activity.
In situ stapling of 1b during ZiPro inhibition assay (Figure 3a)
All measurements were performed in triplicate. 2 µl of DCP (20 mM in DMSO) and 2 µl of 1a (10 mM in water) were mixed in 196 µl buffer (10 mM Tris pH 7.5, 4 mM TCEP). A blank was prepared by adding 2 µl of DCP (20 mM in DMSO) to 198 µl buffer (10 mM Tris pH 7.5, 4 mM TCEP). After 5 minutes, 10 µl of the reaction and blank mixtures were added to ZiPro (0.3 nM) in assay buffer (10 mM Tris pH 8.5, 1 mM CHAPS, 20% glycerol) to a total volume of 100 µl and incubated at room temperature. After incubation over 5, 20, 45, 90 and 180 minutes, substrate (5 µM) was added, and the enzyme activity was monitored as described above. Percent inhibition was calculated as a fraction of 100% enzyme activity considering each individual set of blanks.
Determination of IC50 values of 1a and 1b (Figure 3b-c)
All measurements were performed in triplicate using the ZiPro assay described above . Stock solutions (1 mM and 2 mM) of 1a were prepared in buffer (10 mM Tris pH 7.5, 4 m M T C EP) and used immediately. ZiPro inhibition of 1a was measured at 100, 50, 20, 5, 2. 5, 1, and 0. 5
µM. Stock solutions of purified 1b were made in water. ZiPro inhibition of 1b was measured at 50, 20, 5, 2.5, 1, 0.5, and 0.1 µM. The IC50 values were calculated using GraphPad Prism 8 using a 3 -parameter fit . […]

[2] = the molecule shown is the open-chain precursor, crosslinker bond, 0.6 mM

Sequence of Zika virus NS2B-NS3 protease (ZiPro) (A0A024B7W1 1503-1679): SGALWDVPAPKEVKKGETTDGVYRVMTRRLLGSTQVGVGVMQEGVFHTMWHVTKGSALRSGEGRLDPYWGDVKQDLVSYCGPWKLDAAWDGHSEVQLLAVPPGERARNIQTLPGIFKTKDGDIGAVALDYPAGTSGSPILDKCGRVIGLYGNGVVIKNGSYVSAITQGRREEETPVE
Sequence of Zika virus NS2B-NS3 protease (ZiPro) (A0A024B7W1 1417-1468): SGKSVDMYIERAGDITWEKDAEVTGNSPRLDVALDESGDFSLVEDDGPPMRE

## N=C(N)NCCC[C@H](NC(=O)[C@H](CCCCN)NC(=O)[C@@H](N)CCNC(=O)[C@@H](N)CS)C(=O)N[C@@H](CCCCN)C(=O)N[C@@H](CCNC(=O)[C@@H](N)CS)C(N)=O [1a] (H-[Dab](Cys)KRK[Dab](Cys)-NH2)
[1]; triplicate
  IC50: 23 µM
[1]; purified linear peptides at 1 μM, ZiPro 0.3 nM, substrate 5 μM, 10 mM Tris pH 8.5, 1 mM CHAPS, 20% glycerol, triplicate, n.i. = no inhibition
  ZiPro inhibition (%) 1 μM: n.i.
[1]; purified linear peptides at 10 μM, ZiPro 0.3 nM, substrate Bz-Nle-Lys-Lys-Arg-AMC 5 μM, 10 mM Tris pH 8.5, 1 mM CHAPS, 20% glycerol, fluorescence, triplicate, n.i. = no inhibition
  inhibition at 10 µM: 23 ± 4%

## H-Cys-Lys-Arg-Lys-Dap(Cys)-NH2?
[2]; 24-membered ring, 2,6-dicyanopyridine (2 eq)/TCEP, 10 mM Tris pH 7.5 (aq, MeOH from DCP stock)
  ring closure, conversion: 83%

## H-Cys-Lys-Arg-Lys-Dab(Cys)-NH2?
[2]; 25-membered ring, 2,6-dicyanopyridine (2 eq)/TCEP, 10 mM Tris pH 7.5 (aq, MeOH from DCP stock)
  ring closure, conversion: 76%

## N=C(N)NCCC[C@@H]1NC(=O)[C@H](CCCCN)NC(=O)[C@@H](N)CCNC(=O)[C@@H]2CSC(=N2)c2cccc(n2)C2=N[C@@H](CS2)C(=O)NCC[C@@H](C(N)=O)NC(=O)[C@H](CCCCN)NC1=O [1b]
[1]; in situ stapled peptides (crude mixtures, no purification) after 24 h incubation with DCP, 1 μM, ZiPro 0.3 nM, substrate 5 μM, pH 8.5, triplicate, n.i. = no inhibition
  inhibition at 1 µM: 27 ± 4%
[1]; in situ stapled peptides (crude mixtures, no purification) after 24 h incubation with DCP, 10 μM, ZiPro 0.3 nM, substrate 5 μM, pH 8.5, triplicate, n.i. = no inhibition
  inhibition at 10 µM: 60 ± 7%
[1]; triplicate
  IC50: 0.8 µM

## H-Cys-Lys-Arg-Lys-Orn(Cys)-NH2?
[2]; 26-membered ring, 2,6-dicyanopyridine (2 eq)/TCEP, 10 mM Tris pH 7.5 (aq, MeOH from DCP stock)
  ring closure, conversion: 79%

## N#Cc1cccc(C#N)n1 [DCP, 2,6-dicyanopyridine, reference compound]
[1]; concentrations of DCP used in the assay
  effect of DCP on ZiPro activity: no significant effect

## H-Cys-Lys-Arg-Lys-Lys(Cys)-NH2?
[2]; 27-membered ring, 2,6-dicyanopyridine (2 eq)/TCEP, 10 mM Tris pH 7.5 (aq, MeOH from DCP stock)
  ring closure, conversion: 83%

## H-Dys-Lys-Arg-Lys-Dys-NH2
[2]; 30-membered ring, 2,6-dicyanopyridine (2 eq)/TCEP (6 eq), 10 mM Tris pH 7.5
  ring closure, conversion: 93%
[2]; 30-membered ring, 2,6-dicyanopyridine (2 eq)/TCEP, 10 mM Tris pH 7.5 (aq, MeOH from DCP stock)
  ring closure, conversion: 89%
[2]; 30-membered ring, 2,6-dicyanopyridine (8 eq)/TCEP, 10 mM Tris pH 7.5
  ring closure, conversion: 60%
